We go through six molecules from patent publication US20230150951A1, “2,5- OR 2,6-DISUBSTITUTED HYDROQUINONE DERIVATIVES WITH AT LEAST ONE CARBOXY, SULFO OR AMIDO GROUP USEFUL AS MEDICAMENTS” (OM PHARMA SA, priority 2020, published 2023).

Common to all, as to type: cell-based
For test [1], the target named is T1, VEGFR-2 (Homo sapiens, UniProt P35968).
T1 construct: endogenous in cells; host or cells: primary HUVEC
In words: VEGF-165 induced phosphorylation of VEGF-Receptor on HUVEC. Conditions: HUVEC preincubated 60 min, VEGF165 25 ng/mL 2 min; read-out: VEGFR-Phosphorylation inhibition IC50.

Test [2] has as its system GM-CSF. The experiment in a line: Cytokine release after LPS induction on human whole blood: GM-CSF. The protocol:
(§1) Aim of this in vitro method is to assess compounds effects on release of a panel of cytokines from whole blood following lipopolysaccharide (LPS) induced inflammatory reaction. Whole blood was incubated with compounds for 1 h prior to LPS induction. Cytokine levels in blood were measured using a multiplex FACS-based panel.
(§2) IC50 values determined for the tested compounds expressed in microM [μM] and the values for the inhibition of cytokines were listed for each compound.
(§3) Effect on cytokines release after LPS induction was performed on the compounds dissolved in DMSO or H2O to reach 10-fold concentrated stock solutions and dissolved in culture media.
(§4) Test system: Whole blood was removed from a single donor (into lithium heparin coated tubes; BD Vacutainer; 367886) and diluted 1:5 with RPMI 1640 (Thermo Fisher, 61870036). Within 30 minutes of sampling, blood was incubated with compounds for 1 h prior to LPS stimulation (O111:B4—Sigma L4391; 10 ng/ml final concentration). Stimulation continued under standard cell culture conditions (37° C. with 5% CO2) overnight (18 h), after which plates were centrifuged and supernatant removed and frozen at −80° C. until used for analyses.
(§5) Dilution of test compounds: 10×concentrated solutions (concerning to the final assay concentrations) of each test compound were prepared with the appropriate solvent (in DMSO or in water). These 10× compound solutions (10 μl) were then added to 90 μl pre-diluted whole blood (whole blood: RPMI1640, 1:5) resulting in the final assay concentration.
(§6) Test method: Diluted whole blood (80 μl) was pre-incubated with compounds (10 μl) to give final assay concentrations of 100, 30, 10, 3, 1, 0.3 and 0.1×10^−6M. Blood was incubated at 37° C. with 5% CO2 for 1 h. LPS was diluted in cell culture media to a concentration of […]; 10 μl was added to the whole blood to give a final concentration of 10 ng/ml. Plates were incubated at 37° C. for 18 h. Plates were centrifuged at 3,000 RPM for 5 minutes at 4° C. and supernatant removed and frozen at −80° C. until FACS analysis was carried out.
(§7) Cytokine release was measured using a custom multiplex system (ELISA Genie) according to manufacturers instructions. Prepared samples were run on an Attune NxT flow cytometer (Thermo Fisher).
(§8) Quantification of cytokine release inhibition: known concentration standards were run as part of the cytokine panel to allow quantification of each cytokine concentration in each sample. This was carried out using FCAP Array v3.0 software.
(§9) Results: The dose response relationship on cytokine release following LPS induction of inflammatory response in whole blood was assessed for all compounds. IC50 values were determined for each compound for a panel of cytokines (GM-CSF, IFN-gamma, IL-1beta, IL-2, IL-4, IL-5, IL-6, IL-8, IL-9, IL-10, IL-12p40, IL-13, IL-17A, IL-17F, IL-18, IL-21, IL-22, IL-33, TGF-beta, TNF-alpha, TNF-beta).

The subject of test [3] is IFN-gamma. In words: Cytokine release after LPS induction on human whole blood: IFNγ. The protocol: as §1, §2, §3, §4, §5, §6, §7, §8, §9
In test [4] the test system is IL-17F. The experiment in a line: Cytokine release after LPS induction on human whole blood: IL-17F. The protocol:
as §1, §2, §3, §4, §5, §6, §7, §8, §9

Test [5] has as its system IL-21. The experiment in a line: Cytokine release after LPS induction on human whole blood: IL-21. The protocol: as §1, §2, §3, §4, §5, §6, §7, §8, §9
In test [6] the test system is TGF-beta. In words: Cytokine release after LPS induction on human whole blood: TGFβ. The protocol: as §1, §2, §3, §4, §5, §6, §7, §8, §9
The subject of test [7] is TNF-alpha. In words: Cytokine release after LPS induction on human whole blood: TNFα. The protocol: as §1, §2, §3, §4, §5, §6, §7, §8, §9
[8] abbreviates: Homo sapiens, LPS 10 ng/ml, 18 h, read-out: Whole Blood: GM-CSF IC50.
The mark [9] stands for this setting: human whole blood, inhibition of LPS induced inflammation, read-out: IC50 GM-CSF.
Setting [10] is: Homo sapiens, LPS 10 ng/ml, 18 h, read-out: Whole Blood: IFNγ IC50.
[11] abbreviates: human whole blood, inhibition of LPS induced inflammation, read-out: IC50 IFNγ.
The mark [12] stands for this setting: Homo sapiens, LPS 10 ng/ml, 18 h, read-out: Whole Blood: IL-17F IC50.
The mark [13] stands for this setting: human whole blood, inhibition of LPS induced inflammation, read-out: IC50 IL-17F.
Where [14] appears, read: Homo sapiens, LPS 10 ng/ml, 18 h, read-out: Whole Blood: IL-21 IC50.
Where [15] appears, read: human whole blood, inhibition of LPS induced inflammation, read-out: IC50 IL-21.
The mark [16] stands for this setting: Homo sapiens, LPS 10 ng/ml, 18 h, read-out: Whole Blood: TGFβ IC50.
Setting [17] is: human whole blood, inhibition of LPS induced inflammation, read-out: IC50 TGFbeta.
The mark [18] stands for this setting: Homo sapiens, LPS 10 ng/ml, 18 h, read-out: Whole Blood: TNF α IC50.
Setting [19] is: human whole blood, inhibition of LPS induced inflammation, read-out: IC50 TNFa.

Like-named read-outs stand apart in the source and are kept apart here.

T1 sequence (P35968 20-1356): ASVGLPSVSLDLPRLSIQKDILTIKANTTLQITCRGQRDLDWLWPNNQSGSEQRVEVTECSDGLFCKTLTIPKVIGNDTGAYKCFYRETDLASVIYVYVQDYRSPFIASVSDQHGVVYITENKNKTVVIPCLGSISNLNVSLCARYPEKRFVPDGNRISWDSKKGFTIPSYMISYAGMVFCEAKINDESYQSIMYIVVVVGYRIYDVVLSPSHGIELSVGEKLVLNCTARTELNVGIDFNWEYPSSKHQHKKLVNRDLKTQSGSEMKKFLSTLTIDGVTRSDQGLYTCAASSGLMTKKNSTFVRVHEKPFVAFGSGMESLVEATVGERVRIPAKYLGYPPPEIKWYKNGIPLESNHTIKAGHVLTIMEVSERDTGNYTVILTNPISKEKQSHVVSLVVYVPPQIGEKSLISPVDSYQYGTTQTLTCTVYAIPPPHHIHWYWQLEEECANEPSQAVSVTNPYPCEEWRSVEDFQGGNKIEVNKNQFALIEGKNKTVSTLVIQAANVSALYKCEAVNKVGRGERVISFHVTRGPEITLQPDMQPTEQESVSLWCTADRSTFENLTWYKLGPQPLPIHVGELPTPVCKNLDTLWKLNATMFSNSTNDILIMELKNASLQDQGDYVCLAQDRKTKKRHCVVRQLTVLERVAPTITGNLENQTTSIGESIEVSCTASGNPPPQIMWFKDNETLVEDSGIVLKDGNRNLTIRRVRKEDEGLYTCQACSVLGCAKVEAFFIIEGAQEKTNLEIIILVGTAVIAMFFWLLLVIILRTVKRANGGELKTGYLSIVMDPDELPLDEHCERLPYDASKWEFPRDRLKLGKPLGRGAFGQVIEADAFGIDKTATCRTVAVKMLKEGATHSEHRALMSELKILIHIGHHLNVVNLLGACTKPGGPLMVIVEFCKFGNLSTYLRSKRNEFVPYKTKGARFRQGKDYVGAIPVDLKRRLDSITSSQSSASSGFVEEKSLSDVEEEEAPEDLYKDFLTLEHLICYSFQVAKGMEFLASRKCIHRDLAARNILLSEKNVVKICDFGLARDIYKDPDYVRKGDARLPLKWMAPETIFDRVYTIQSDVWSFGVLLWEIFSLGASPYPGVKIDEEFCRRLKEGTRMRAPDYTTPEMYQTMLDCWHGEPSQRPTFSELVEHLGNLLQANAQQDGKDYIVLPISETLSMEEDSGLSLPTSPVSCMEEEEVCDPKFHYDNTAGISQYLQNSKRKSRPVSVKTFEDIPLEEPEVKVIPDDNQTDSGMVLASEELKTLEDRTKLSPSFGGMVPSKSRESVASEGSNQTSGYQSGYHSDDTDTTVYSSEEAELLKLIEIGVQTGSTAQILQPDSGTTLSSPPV

In the case of `O=C(O)c1cc(NC(=O)c2cc(O)c(C(=O)O)cc2O)cc(NC(=O)c2cc(O)c(C(=O)O)cc2O)c1` [Ib-010a, 3,5-bis(2,5-dihydroxy-4-carboxybenzoylamino)benzoic acid], the IC50 in test [1] is 1.6 µM; in test [2] (setting [8]), more than 100 µM; in test [2] (setting [9]), 100 µM; in test [3] (setting [10]) it was 2.22 µM; in test [3] (setting [11]) it was 2.22 µM; in test [4] (setting [12]), more than 100 µM. For the same molecule, the IC50 in test [4] (setting [13]) was 100 µM; in test [5] (setting [14]), 67.8 µM; in test [5] (setting [15]), 67.8 µM; in test [6] (setting [16]) it was more than 100 µM; in test [6] (setting [17]), 100 µM; in test [7] (setting [18]), 0.31 µM. Besides, the 50% inhibitory concentration (IC50) in test [7] (setting [19]) was determined as 0.31 µM.

For the molecule `CC(=O)N(Cc1cc(O)c(C(=O)O)cc1O)Cc1cc(O)c(C(=O)O)cc1O` [IIIc-057a, N,N-Bis(4-carboxy-2,5-dihydroxyphenylmethyl)acetamide], the IC50 in test [1] was 0.2 µM; in test [2] (setting [8]), more than 100 µM; in test [2] (setting [9]), 100 µM; in test [3] (setting [10]) it was 0.9 µM; in test [3] (setting [11]), 0.9 µM; in test [4] (setting [12]), 5.06 µM. Moreover, the IC50 in test [4] (setting [13]) is 5.06 µM; in test [5] (setting [14]) it was 1.56 µM; in test [5] (setting [15]), 1.56 µM; in test [6] (setting [16]), more than 100 µM; in test [6] (setting [17]), 100 µM; in test [7] (setting [18]) it was 0.15 µM. In addition, the IC50 in test [7] (setting [19]) was found to be 0.15 µM.

On to `O=C(Nc1ccccc1-c1nnn[nH]1)c1cc(O)c(C(=O)Nc2ccccc2-c2nnn[nH]2)cc1O` [Ic-001aTz2, N1,N4-bis(2-(1H-tetrazol-5-yl)phenyl)-2,5-dihydroxyterephthalamide], for which the half-inhibitory concentration (IC50) was 2.2 µM in test [1]; more than 100 µM in test [2] (setting [8]); 1.38 µM in test [3] (setting [10]); 0.15 µM in test [4] (setting [12]); 32 µM in test [5] (setting [14]); more than 100 µM in test [6] (setting [16]). The IC50 in test [7] (setting [18]) is 0.1 µM.

Consider `O=C(O)c1cc(O)cc(CSCc2cc(O)cc(C(=O)O)c2O)c1O` [IVc-058a, 3-((2,5-Dihydroxy-3-carboxyphenyl)methylthiomethyl)-2,5-dihydroxybenzoic acid], for which the IC50 in test [1] is 0.53 µM; in test [2] (setting [8]), more than 100 µM; in test [2] (setting [9]), 100 µM; in test [3] (setting [10]) it was 10.6 µM; in test [3] (setting [11]) it was 10.6 µM; in test [4] (setting [12]), 86.8 µM. In addition, the IC50 is 86.8 µM in test [4] (setting [13]); 3.2 µM in test [5] (setting [14]); 3.2 µM in test [5] (setting [15]); more than 100 µM in test [6] (setting [16]); 100 µM in test [6] (setting [17]); 0.18 µM in test [7] (setting [18]). Besides, the IC50 in test [7] (setting [19]) turned out to be 0.18 µM.

As for `O=C(O)c1cc(O)c(C(=O)Nc2ccccc2C(=O)O)cc1O` [Ia-001a, 4-(2-carboxyphenylaminocarbonyl)-2,5-dihydroxybenzoic acid], the IC50 was 2.25 µM in test [1]; more than 100 µM in test [2] (setting [8]); 100 µM in test [2] (setting [9]); 30.5 µM in test [3] (setting [10]); 30.5 µM in test [3] (setting [11]); 14.7 µM in test [4] (setting [12]). Also, the IC50 is 14.7 µM in test [4] (setting [13]); more than 100 µM in test [5] (setting [14]); 100 µM in test [5] (setting [15]); more than 100 µM in test [6] (setting [16]); 100 µM in test [6] (setting [17]); 0.02 µM in test [7] (setting [18]). Besides, the IC50 in test [7] (setting [19]) came to 0.02 µM.

Turning to `COC(=O)c1cc(OC(C)=O)cc(CS(=O)(=O)Cc2cc(OC(C)=O)cc(C(=O)OC)c2OC(C)=O)c1OC(C)=O` [IVc-059a-E2-A4], the IC50 in test [2] (setting [8]) came to 1.83 µM; in test [2] (setting [9]) it was 1.83 µM; in test [3] (setting [10]), 3.5 µM; in test [3] (setting [11]) it was 3.5 µM; in test [4] (setting [12]), 25.8 µM; in test [4] (setting [13]), 25.8 µM. Besides, the IC50 in test [5] (setting [14]) is more than 100 µM; in test [5] (setting [15]), 100 µM; in test [6] (setting [16]), more than 100 µM; in test [6] (setting [17]), 100 µM; in test [7] (setting [18]), 0.3 µM; in test [7] (setting [19]), 0.3 µM.

By IC50 is commonly meant the point on the concentration scale where inhibition reaches its midpoint.
